Test system: not listed separately
Assay: Experimental LogD measurement (1-octanol / PBS buffer partition, absorbance readout)
Type: physicochemical
Conditions: pH 7.4, room temperature, read-out: Log D7.4
Description: Experimental LogD measurements. Each screening candidate was dissolved in DMSO at a concentration of 10 mM. The stock solution was sampled (2 μL) and added to a 1 mL mixture of 1-octanol and PBS buffer (equal volume). The solution was then vortexed for 30 mins at room temperature before centrifuged at 13,000 rpm for 5 minutes. The PBS buffer and 1-octanol layers were separated and measured for absorbance using a SpectraMax M5 spectrometer with a Microplate reader (Molecular Devices, Sunnyvale, CA). Sample concentration in each phase was then calculated using Beer's Law plots of absorbance versus concentration. The experimental LogD value for each screening candidates was calculated using the equation below.

| logD | SMILES |
| --- | --- |
| 0.8 | CCN(CC)c1ccc2nc3ccc(=[N+]4CCC4)cc-3oc2c1 [LGW13-79, 1-(7-(diethylamino)-3H-phenoxazin-3-ylidene)azetidin-1-ium] |
| 0.5 | CCN1CCOc2cc3nc4ccc(=[N+]5CCC5)cc-4oc3cc21 [LGW14-42, 1-(4-ethyl-3,4-dihydro-[1,4]oxazino[2,3-b]phenoxazin-8(2H)-ylidene)azetidin-1-ium] |
| 0.1 | CN1CCOc2cc3nc4ccc(=[N+]5CCC5)cc-4oc3cc21 [LGW14-47, 1-(4-methyl-3,4-dihydro-[1,4]oxazino[2,3-b]phenoxazin-8(2H)-ylidene)azetidin-1-ium] |
| 0.5 | CC/[N+](C)=c1\ccc2nc3ccc(N4CCC4)cc3oc-2c1 [LGW14-51, (E)-N-(7-(azetidin-1-yl)-3H-phenoxazin-3-ylidene)-N-methylethanaminium] |
| 0.5 | c1cc2nc3ccc(=[N+]4CCC4)cc-3oc2cc1N1CCCC1 [LGW14-83, 1-(7-(pyrrolidin-1-yl)-3H-phenoxazin-3-ylidene)azetidin-1-ium] |

| SMILES | logD |
| --- | --- |
| c1cc2nc3ccc(=[N+]4CCC4)cc-3oc2cc1N1CCC1 [LGW14-53, 1-(7-(azetidin-1-yl)-3H-phenoxazin-3-ylidene)azetidin-1-ium] | 0.3 |

Test system: nerve
Assay: not given
Conditions: Park et al. Theranostics 4, 823-833 (2014); cited from earlier work

| SMILES | nerve-specificity |
| --- | --- |
| CC/N=c1/cc2oc3cc(NCC)c(C)cc3nc-2cc1C [Oxazine 4] | high nerve-specificity |

From patent US12605468B2, “Oxazine-based fluorophore compounds for nerve-specific imaging” (Oregon Health & Science University, priority 2020, dated 2026)
